Measured values: US9776995B2, “Bicyclic sulfonamide compounds as sodium channel inhibitors” (AMGEN INC., priority 2013, dated 2017)

What follows are molecules tested against Nav 1.7 (Homo sapiens (Human), UniProt Q15858) (assay: in-vitro Nav 1.7 PX data). Conditions: in-vitro Nav 1.7 PX data.
Format: cell-based

Chain of Nav 1.7 (Q15858 whole entry): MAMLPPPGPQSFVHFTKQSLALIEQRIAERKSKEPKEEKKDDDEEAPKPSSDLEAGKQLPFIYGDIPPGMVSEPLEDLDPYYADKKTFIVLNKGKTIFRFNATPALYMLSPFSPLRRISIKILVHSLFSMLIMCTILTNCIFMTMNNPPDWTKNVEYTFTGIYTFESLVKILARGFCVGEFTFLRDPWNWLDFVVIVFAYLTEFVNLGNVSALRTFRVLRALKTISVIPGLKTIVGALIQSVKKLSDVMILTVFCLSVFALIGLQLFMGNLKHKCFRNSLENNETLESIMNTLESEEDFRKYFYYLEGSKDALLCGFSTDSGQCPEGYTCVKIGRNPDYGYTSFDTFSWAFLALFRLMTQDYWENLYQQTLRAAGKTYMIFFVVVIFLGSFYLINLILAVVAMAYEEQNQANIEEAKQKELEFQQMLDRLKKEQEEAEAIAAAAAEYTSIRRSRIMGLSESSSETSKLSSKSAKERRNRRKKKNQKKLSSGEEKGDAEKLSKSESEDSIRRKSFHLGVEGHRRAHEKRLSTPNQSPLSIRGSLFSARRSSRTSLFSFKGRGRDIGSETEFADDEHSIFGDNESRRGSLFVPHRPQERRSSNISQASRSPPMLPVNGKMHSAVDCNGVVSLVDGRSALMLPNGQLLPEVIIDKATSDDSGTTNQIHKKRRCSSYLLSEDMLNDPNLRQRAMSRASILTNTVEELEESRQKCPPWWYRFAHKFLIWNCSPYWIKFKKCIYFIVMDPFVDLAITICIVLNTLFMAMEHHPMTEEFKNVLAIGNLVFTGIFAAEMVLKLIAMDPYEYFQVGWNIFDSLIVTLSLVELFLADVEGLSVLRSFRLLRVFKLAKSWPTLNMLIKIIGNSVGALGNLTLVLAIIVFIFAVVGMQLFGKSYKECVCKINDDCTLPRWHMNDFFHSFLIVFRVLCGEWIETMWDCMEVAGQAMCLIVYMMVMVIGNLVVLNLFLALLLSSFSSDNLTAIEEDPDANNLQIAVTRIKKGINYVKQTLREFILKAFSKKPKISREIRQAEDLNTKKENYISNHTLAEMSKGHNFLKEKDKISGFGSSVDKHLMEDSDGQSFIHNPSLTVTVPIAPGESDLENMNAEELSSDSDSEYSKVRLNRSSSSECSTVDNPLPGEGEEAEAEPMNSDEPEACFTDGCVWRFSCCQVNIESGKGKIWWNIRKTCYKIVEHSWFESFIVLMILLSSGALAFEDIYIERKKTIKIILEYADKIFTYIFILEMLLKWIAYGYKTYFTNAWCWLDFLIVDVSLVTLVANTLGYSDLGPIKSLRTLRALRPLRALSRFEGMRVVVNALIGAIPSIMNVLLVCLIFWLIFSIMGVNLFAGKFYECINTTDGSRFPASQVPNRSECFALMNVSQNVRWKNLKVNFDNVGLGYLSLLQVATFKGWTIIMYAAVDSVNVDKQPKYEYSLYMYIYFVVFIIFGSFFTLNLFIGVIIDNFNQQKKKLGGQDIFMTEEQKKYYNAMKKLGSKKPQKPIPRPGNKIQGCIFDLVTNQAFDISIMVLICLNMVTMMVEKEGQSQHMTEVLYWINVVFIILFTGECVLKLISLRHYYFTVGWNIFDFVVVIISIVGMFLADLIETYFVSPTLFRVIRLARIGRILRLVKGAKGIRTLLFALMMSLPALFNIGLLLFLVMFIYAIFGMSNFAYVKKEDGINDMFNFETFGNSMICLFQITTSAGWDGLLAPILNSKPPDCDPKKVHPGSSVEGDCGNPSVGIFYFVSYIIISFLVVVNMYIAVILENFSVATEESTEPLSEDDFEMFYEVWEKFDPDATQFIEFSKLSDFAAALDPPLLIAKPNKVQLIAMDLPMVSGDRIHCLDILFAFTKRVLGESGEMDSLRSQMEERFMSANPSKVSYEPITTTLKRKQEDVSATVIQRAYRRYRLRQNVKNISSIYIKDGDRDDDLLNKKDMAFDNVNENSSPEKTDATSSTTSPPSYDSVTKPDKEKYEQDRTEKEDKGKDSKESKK

| IC50 | Compound |
| --- | --- |
| 3840 nM | COc1ccc(C)c(-c2cc(C)c(-c3ncnc4cc(S(=O)(=O)Nc5ccon5)ccc34)cc2OC)c1 [Example 173, 4-(2,5′-dimethoxy-2′,5-dimethyl-4-biphenylyl)-N-3-isoxazolyl-7-quinazolinesulfonamide] |

Same assay, conditions: in-vitro PX

| Compound | IC50 |
| --- | --- |
| COc1cc(-c2cc(F)cc(F)c2)c(Cl)cc1-c1ncnc2cc(S(=O)(=O)Nc3ccon3)ccc12 [Example 206, 4-(2-chloro-3′,5′-difluoro-5-methoxy-4-biphenylyl)-N-3-isoxazolyl-7-quinazolinesulfonamide] | 14.5 nM |
| COc1cc(-c2ccc(F)c(C)c2)c(Cl)cc1-c1ncnc2cc(S(=O)(=O)Nc3ccon3)ccc12 [Example 213, 4-(2-chloro-4′-fluoro-5-methoxy-3′-methyl-4-biphenylyl)-N-3-isoxazolyl-7-quinazolinesulfonamide] | 38.2 nM |
| COc1cc(-c2cc(F)cnc2OC)c(Cl)cc1-c1ncnc2cc(S(=O)(=O)Nc3ccon3)ccc12 [Example 214, 4-(5-chloro-4-(5-fluoro-2-methoxy-3-pyridinyl)-2-methoxyphenyl)-N-3-isoxazolyl-7-quinazolinesulfonamide] | 19.8 nM |

Other lines, results leading:

| IC50 | Compound |
| --- | --- |
| 21.8 nM | COc1cc(-c2ccc(Cl)c(C)c2)c(Cl)cc1-c1ncnc2cc(S(=O)(=O)Nc3ccon3)ccc12 [Example 204, 4-(2,4′-dichloro-5-methoxy-3′-methyl-4-biphenylyl)-N-3-isoxazolyl-7-quinazolinesulfonamide] |
| 51.5 nM | COc1cc(-c2cccc(F)c2)c(Cl)cc1-c1ncnc2cc(S(=O)(=O)Nc3cnsn3)ccc12 [Example 207, 4-(2-chloro-3′-fluoro-5-methoxy-4-biphenylyl)-N-1,2,5-thiadiazol-3-yl-7-quinazolinesulfonamide] |
| 1050 nM | COc1cc(-c2cccc(F)c2)ccc1-c1ccnc2cc(S(=O)(=O)Nc3nncs3)ccc12 [Example 210, 4-(3′-fluoro-3-methoxy-4-biphenylyl)-N-1,3,4-thiadiazol-2-yl-7-quinolinesulfonamide] |
| 1370 nM | COc1cc(-c2cccc(F)n2)c(F)cc1-c1nccc2cc(S(=O)(=O)Nc3nncs3)ccc12 [Example 212, 1-(5-fluoro-4-(6-fluoro-2-pyridinyl)-2-methoxyphenyl)-N-1,3,4-thiadiazol-2-yl-6-isoquinolinesulfonamide] |
| 126 nM | COc1cc(-c2cccc(F)c2)c(Cl)cc1-c1n[nH]c(=O)c2cc(S(=O)(=O)Nc3ccon3)ccc12 [Example 232, 1-(2-chloro-3′-fluoro-5-methoxy-4-biphenylyl)-N-3-isoxazolyl-4-oxo-3,4-dihydro-6-phthalazinesulfonamide] |

Same assay, conditions: in-vitro PX (PatchXpress) data

| Compound | IC50 |
| --- | --- |
| COc1cc(-c2cccnc2OC(F)F)ccc1-c1nccc2cc(S(=O)(=O)Nc3nncs3)ccc12 [Example 193, 1-(4-(2-(difluoromethoxy)-3-pyridinyl)-2-methoxyphenyl)-N-1,3,4-thiadiazol-2-yl-6-isoquinolinesulfonamide] | 871 nM |
| COc1cc(Oc2ccc(F)cn2)ccc1-c1nccc2cc(S(=O)(=O)Nc3ccon3)ccc12 [Example 195, 1-(4-((5-fluoro-2-pyridinyl)oxy)-2-methoxyphenyl)-N-3-isoxazolyl-6-isoquinolinesulfonamide] | 1610 nM |

Results, then the molecule that gave them:

| IC50 | Compound |
| --- | --- |
| 18700 nM | COc1cc(Oc2cc(F)cc(F)c2)ccc1-c1nccc2cc(S(=O)(=O)Nc3ccncn3)ccc12 [Example 178, 1-(4-(3,5-difluorophenoxy)-2-methoxyphenyl)-N-4-pyrimidinyl-6-isoquinolinesulfonamide] |
| 4940 nM | O=S(=O)(Nc1nncs1)c1ccc2c(-c3ccc(C(F)(F)F)cc3C3CC3)ncnc2c1 [Example 192, 4-(2-cyclopropyl-4-(trifluoromethyl)phenyl)-N-1,3,4-thiadiazol-2-yl-7-quinazolinesulfonamide] |
| 1050 nM | COc1ccc(-c2ccc(-c3nccc4cc(S(=O)(=O)Nc5nncs5)ccc34)c(OC)c2)c(F)n1 [Example 196, 1-(4-(2-fluoro-6-methoxy-3-pyridinyl)-2-methoxyphenyl)-N-1,3,4-thiadiazol-2-yl-6-isoquinolinesulfonamide] |
